This note sets out measurements from patent US11040976B2, “Substrate selective inhibitors of insulin-degrading enzyme (IDE) and uses thereof” (President and Fellows of Harvard College, priority 2015, dated 2021).

Each structure is given as a SMILES string.

In test [1] the target is T1, Human N-His6-IDE42-1019 (E. coli expressed) (Homo sapiens, UniProt P14735).
T1 construct: Human N-His6-IDE42-1019 (E. coli expressed); made in house; host or cells: E. coli (Rosetta 2 (DE3) pLysS, plasmid pTrcHis-A)
T1 sequence (P14735 42-1019): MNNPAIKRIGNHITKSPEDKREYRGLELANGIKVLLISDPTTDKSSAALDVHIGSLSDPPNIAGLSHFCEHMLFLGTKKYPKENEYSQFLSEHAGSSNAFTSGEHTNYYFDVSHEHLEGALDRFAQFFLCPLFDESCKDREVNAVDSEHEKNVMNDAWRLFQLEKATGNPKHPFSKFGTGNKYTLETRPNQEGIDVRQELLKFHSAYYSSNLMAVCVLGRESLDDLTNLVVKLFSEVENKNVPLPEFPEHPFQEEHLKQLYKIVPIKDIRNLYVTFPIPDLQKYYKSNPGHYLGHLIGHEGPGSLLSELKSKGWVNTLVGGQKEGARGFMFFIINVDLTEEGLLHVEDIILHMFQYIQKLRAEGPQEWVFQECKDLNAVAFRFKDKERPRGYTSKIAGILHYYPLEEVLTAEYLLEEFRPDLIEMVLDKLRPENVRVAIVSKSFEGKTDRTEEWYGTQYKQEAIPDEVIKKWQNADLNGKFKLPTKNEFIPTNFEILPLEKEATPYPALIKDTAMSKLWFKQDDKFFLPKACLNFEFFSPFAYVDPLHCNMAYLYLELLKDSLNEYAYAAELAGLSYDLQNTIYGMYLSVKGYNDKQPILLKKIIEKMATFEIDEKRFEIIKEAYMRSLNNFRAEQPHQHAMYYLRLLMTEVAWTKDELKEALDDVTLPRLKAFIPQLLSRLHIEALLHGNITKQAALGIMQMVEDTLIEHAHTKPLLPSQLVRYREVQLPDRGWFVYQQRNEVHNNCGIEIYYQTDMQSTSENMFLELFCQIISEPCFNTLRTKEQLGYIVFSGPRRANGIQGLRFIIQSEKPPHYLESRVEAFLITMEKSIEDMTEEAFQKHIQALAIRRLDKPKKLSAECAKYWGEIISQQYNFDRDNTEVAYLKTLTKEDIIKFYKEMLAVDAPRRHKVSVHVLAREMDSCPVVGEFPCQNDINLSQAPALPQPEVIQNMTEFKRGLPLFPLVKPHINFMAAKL
The experiment in a line: Fluorescence anisotropy high-throughput screening assay (displacement of probe FL-6b). Conditions: final compound concentration 20 μM (6bK control 1 μM); values without asterisk. The format is binding. The gist of the method:
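Compounds at 20 μM final were added to 0.5 μM enzyme with fluorescein-labelled macrocycle probe ([…]) in 50 mM Tris pH 8.0, 1 M NaCl, 25 °C. Anisotropy (ex 492/em 523 nm) was read after 30 min in duplicate. Z-scores were calculated against plate DMSO controls.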
In general terms: Fluorescence polarisation rises when a labelled molecule tumbles more slowly, as on binding a larger partner.

For test [2], the target named is T2, recombinant human IDE42-1019 (Homo sapiens, UniProt P14735).
T2 construct: recombinant human IDE42-1019 (R&D Systems); purchased R&D Systems
T2 sequence (P14735 42-1019): T1 sequence (P14735 42-1019)
The experiment in a line: Protease assay with fluorogenic peptide substrate Mca-[…](Dnp)-OH. The test is classed as biochemical. Conditions: for IC50: fluorogenic peptide Mca-RPPGFSAFK(Dnp)-OH, apparent IC50 for compounds with submaximal inhibition, read-out: IC50 (μM) Proteolysis.

One may read the IC50 as the concentration that inhibits the measured activity by half. For the molecule `NCCCC[C@@H]1NC(=O)/C=C/C(=O)N[C@H](C(N)=O)CCCCNC(=O)[C@@H](Cc2ccc(C(=O)c3ccccc3)cc2)NC(=O)[C@H](CC2CCCCC2)NC1=O` [6bK, reference compound], the “Average Z-score (Fluorescence anisotropy)” value in test [1] was −24.52. For the same molecule, the IC50 in test [2] came to 0.05 µM. The Emax in test [2] (read-out: Imax (%) Proteolysis (inhibition maximum), fluorogenic peptide Mca-RPPGFSAFK(Dnp)-OH, plateau at high inhibitor concentration) was 100%.

As to `Cc1cccc(-c2ccc([C@@H]3[C@@H](CO)N4CCCCN(S(=O)(=O)c5ccccc5C)C[C@@H]34)cc2)c1` [compound 297], the “Average Z-score (Fluorescence anisotropy)” value in test [1] is on record as −20.26. The IC50 in test [2] was 0.25 µM.
